Measurements as given in patent publication US10711007B2, “Selective inhibitors of protein arginine methyltransferase 5 (PRMT5)” (Prelude Therapeutics, Incorporated, priority 2018, dated 2020).
pIC50: −log10 of the molar value.

Key:
[1] = system: sDMA marks (SmD3me2s) in U-87 MG cells; assay: Western blotting for symmetric di-methyl arginine (sDMA) marks in U-87 MG cells; assay type: cell-based; conditions: Homo sapiens, 72 h; U-87 MG cell line, 3 days
Method: Cell Treatment and Western Blotting for Detecting Symmetric Di-Methyl Arginine (sDMA) Marks
Compound Titration and Cell Culture:
Compounds were dissolved in DMSO to make 10 mM stock and 3-fold series dilutions were further conducted to make working stocks top at 1 mM. Granta-519 cells were maintained in PRMI 1640 (Corning Cellgro, Catalog #: 10-040-CV) supplemented with 10% v/v FBS (GE Healthcare, Catalog #: SH30910.03) and U-87 MG cells were maintained in DMEM (Corning Cellgro, Catalog #: 10-013-CV) with 10% FBS and 2 mM Glutamin (Corning Cellgro, Catalog #25005CV).
To determine enzyme inhibition IC50 values in Granta-519 and U-87 MG cells using Western Blot analysis. One day before experiment, Granta-519 cells were passaged to a density of 0.5×10^6 cells/ml. U-87 MG cells were trypsinized and 4×10^5 cells were seeded into 6-well plates and allow to grow overnight. The next day, Granta-519 cells were spun down at 1,500 rpm for 4 min, resuspend in fresh medium at 0.5×10^6 cells/ml and 3 mL of culture (1.5×10^6 cells) were seeded into 6 well plate. Eight-point, 3-fold serial dilutions of compound working stocks were added to cells (3 ul, 1:1,000 dilution, DMSO concentration was 0.1%; final top concentration at 1 uM) and incubated for 3 days. Cells incubated with DMSO was used as a vehicle control.
Cells were harvested 3 days later, resuspended in 15 uL PBS, lysed in 4% SDS, and homogenized by passing through homogenizer column (Omega Biotek, Catalog #: HCR003). Total protein concentrations were determined by BCA assay (ThermoFisher Scientific, Catalog #: 23225). Lysates were mixed with 5× Laemmli buffer and boiled for 5 min. Forty ug of total protein was separated on SDS-PAGE gels (Bio-Rad, catalog #: 4568083, 4568043), transferred to PVDF membrane, blocked with 5% dry milk (Bio-Rad, Catalog #: 1706404) in TBS with 0.1% v/v Tween 20 (TBST) for 1 hour at room temperature (RT), and incubated with primary antibodies (sDMA: Cell signaling, Catalog #: 13222, 1:3,000; β-Actin: sigma, Catalog #: 1:5,000) in 5% dry milk in TBST at 4° C. overnight. The next day, membranes were washed with TBST, 5×5 min, and incubated with HRP conjugated seconded antibody (GE Healthcare; Catalog #: NA934-1ML, NA931-1ML; 1:5,000) for 2 hours at RT, followed by 5×5 min washes with TBST, and incubation with ECL substrates (Bio-Rad, Catalog #: 1705061, 1705062). Chemiluminescent signal was captured with Fluochem HD2 imager (Proteinsimple). SmD3me2s bands were quantified by ImageJ. Signals were normalized to β-Actin and DMSO control. IC50 values were calculated using Graphpad Prism ([Inhibitor] vs. normalized response-Variable slope).

[2] = system: γ-globin expression in K562 cells; assay: γ-globin induction by quantitative PCR in K562 cells; assay type: cell-based; conditions: 1 μM, 6 days of treatment, N=1
Method: Compounds were dissolved in DMSO to make 10 mM stock solutions, and further diluted to make 1 mM and 0.1 mM stocks.
K562 cells were purchased from ATCC and maintained in Iscove's DMEM (Corning Cellgro, Catalog #15-016-CVR) supplemented with 10% v/v FBS (GE Healthcare, Catalog #: SH30910.03) in a CO2 incubator (5% CO2) at 37° C. Cells were plated at a density of 5×10^5 cells/ml and treated with compound at final concentrations of 0.1 and 1 μM. Media and compound were renewed after 3 days in culture and cells were collected for RNA isolation after 6 days of treatment.
Assessment of γ-Globin Induction by Quantitative PCR
RNA was isolated using Quick-RNA Microprep kit (Zymo Research, Catalog # Z1050), cDNA was synthesized using qScript cDNA SuperMix (Quantabio, Catalog #95048). Quantitative PCR for y-globin was performed using PerfeCTa SYBR Green FastMix (Quantabio, Catalog #95071) on Bio-Rad CFX Connect Real-Time PCR Detection System. Gene expression analysis was performed using CFX Manager software.
Assessment of γ-Globin Induction by Quantitative PCR in K562 Cells
Compounds were dissolved in DMSO to make 10 mM stock solutions, and further diluted to make 1 mM and 0.1 mM stocks. K562 cells were purchased from ATCC and maintained in Iscove's DMEM (Corning Cellgro, Catalog #15-016-CVR) supplemented with 10% v/v FBS (GE Healthcare, Catalog #: SH30910.03) in a CO2 incubator (5% CO2) at 37° C. […]

pIC50 [1]: 7.60
Compound: Nc1ncnc2c1ccn2[C@@H]1O[C@H]([C@@H]2OCc3ccc(Cl)cc32)[C@@H](O)[C@H]1O [Example 5, (2R,3R,4S,5S)-2-(4-amino-7H-pyrrolo[2,3-d]pyrimidin-7-yl)-5-((R)-6-chloro-1,3-dihydroisobenzofuran-1-yl)tetrahydrofuran-3,4-diol]
increase in expression of γ-globin [2]: 8 fold
